Laboratory results published in patent US20020137929A1, “1 - (3-heterocyclylphenyl) isothiourea, -isourea, -guanidine and -amidine herbicidal agents” (Intellectual Property Department, BASF Aktiengesellschaft, priority 1998, published 2002).

Key:
GALAP (Galium) = assay: Preemergence herbicidal evaluation; assay type: in vivo, Galium aparine; conditions: rated 4-5 weeks after treatment
Summary of the method: (§1)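 Steps: mix seeds into potting soil; plant atop ~1 inch soil; spray compound in aqueous acetone (~0.0156-0.500 kg/ha equivalent); maintain in greenhouse with watering; rate visually 0-9 versus control at 4-5 weeks.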

[1] = tested on: GLXMAW (Soybean, Williams); assay: Postemergence herbicidal evaluation; assay type: in vivo, Glycine max, (L.) Merr. cv Williams; conditions: for Herbicidal rating GLXMAW: postemergence
Summary of the method: (§2)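 Scores (0–9) reflect plant stand, vigor, malformation, size, chlorosis and general appearance relative to control, read 4 to 5 weeks after treatment and averaged where tests were repeated. Application: about 0.0156–0.500 kg/ha sprayed at 40 psi onto two-week seedlings.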

ABUTH (Velvetleaf) = assay: Postemergence herbicidal evaluation; assay type: in vivo, Abutilon theophrasti; conditions: for Herbicidal rating ABUTH: postemergence
Summary of the method: as §2

ZEAMX (Corn, Field) = assay: Preemergence herbicidal evaluation; assay type: in vivo, Zea mays; conditions: rated 4-5 weeks after treatment
Summary of the method: as §1

ECHCG (Barnyardgrass) [2] = assay: Preemergence herbicidal evaluation; assay type: in vivo, Echinochloa crus-galli; conditions: rated 4-5 weeks after treatment
Summary of the method: as §1

[3] = tested on: TRZAWR (Wheat, Winter, cv Riband); assay: Postemergence herbicidal evaluation; assay type: in vivo, Triticum aestivum; conditions: for Herbicidal rating TRZAWR: postemergence
Summary of the method: as §2

ECHCG (Barnyardgrass) [4] = assay: Postemergence herbicidal evaluation; assay type: in vivo, Echinochloa crus-galli; conditions: for Herbicidal rating ECHCG: postemergence
Summary of the method: as §2

[5] = tested on: IPOHE (Morningglory, Ivyleaf); assay: Postemergence herbicidal evaluation; assay type: in vivo, Ipomoea hederacea; conditions: for Herbicidal rating IPOHE: postemergence
Summary of the method: as §2

SETVI (Foxtail, Green) = assay: Postemergence herbicidal evaluation; assay type: in vivo, Setaria viridis; conditions: for Herbicidal rating SETVI: postemergence
Summary of the method: as §2

[6] = tested on: CHEAL (Lambsquarters, Common); assay: Preemergence herbicidal evaluation; assay type: in vivo, Chenopodium album; conditions: rated 4-5 weeks after treatment
Summary of the method: as §1

CASOB (Sicklepod) = assay: Preemergence herbicidal evaluation; assay type: in vivo, Cassia obtusifolia; conditions: rated 4-5 weeks after treatment
Summary of the method: as §1

[7] = tested on: IPOHE (Morningglory, Ivyleaf); assay: Preemergence herbicidal evaluation; assay type: in vivo, Ipomoea hederacea; conditions: rated 4-5 weeks after treatment
Summary of the method: as §1

AMBEL (Ragweed, Common) = assay: Postemergence herbicidal evaluation; assay type: in vivo, Ambrosia artemisifolia; conditions: for Herbicidal rating AMBEL: postemergence
Summary of the method: as §2

CCOC(=O)CN1C(=O)C(CC(=O)O)SC1=Nc1cc(N2C(=O)CC(C(F)(F)F)CC2=O)c(F)cc1Cl (centres unmarked) [Compound 170, 2-{{2-Chloro-5-[2,6-dioxo-4-(trifluoromethyl)-piperidino]-4-fluorophenyl}imino}-4-oxo-3,5-thiazolidinediacetic acid, 3-ethyl ester]
7.0: Preemergence herbicidal rating ZEAMX (ZEAMX (Corn, Field); 0.0313 kg/ha) | Preemergence herbicidal rating IPOHE ([7]; 0.0313 kg/ha) | Preemergence herbicidal rating IPOHE ([7]; 0.1250 kg/ha)
7.5: Herbicidal rating GLXMAW ([1]; rate 0.0156 kg/ha) | Herbicidal rating GLXMAW ([1]; rate 0.0313 kg/ha) | Herbicidal rating GLXMAW ([1]; rate 0.0625 kg/ha)
5.0: Preemergence herbicidal rating ZEAMX (ZEAMX (Corn, Field); 0.0156 kg/ha) | Herbicidal rating TRZAWR ([3]; rate 0.0625 kg/ha)
3.5: Herbicidal rating TRZAWR ([3]; rate 0.0156 kg/ha)
0.0: Preemergence herbicidal rating GALAP (GALAP (Galium); 0.0156 kg/ha) | Preemergence herbicidal rating GALAP (GALAP (Galium); 0.0313 kg/ha) | Preemergence herbicidal rating GALAP (GALAP (Galium); 0.0625 kg/ha) | Preemergence herbicidal rating GALAP (GALAP (Galium); 0.1250 kg/ha) | Preemergence herbicidal rating CASOB (CASOB (Sicklepod); 0.0156 kg/ha) | Preemergence herbicidal rating CASOB (CASOB (Sicklepod); 0.0313 kg/ha) | Preemergence herbicidal rating CASOB (CASOB (Sicklepod); 0.0625 kg/ha)
9.0: Herbicidal rating ABUTH (ABUTH (Velvetleaf); rate 0.0156 kg/ha) | Herbicidal rating ABUTH (ABUTH (Velvetleaf); rate 0.0313 kg/ha) | Herbicidal rating ABUTH (ABUTH (Velvetleaf); rate 0.0625 kg/ha) | Preemergence herbicidal rating ZEAMX (ZEAMX (Corn, Field); 0.1250 kg/ha) | Preemergence herbicidal rating ZEAMX (ZEAMX (Corn, Field); 0.2500 kg/ha) | Preemergence herbicidal rating ECHCG (ECHCG (Barnyardgrass) [2]; 0.0313 kg/ha) | Preemergence herbicidal rating ECHCG (ECHCG (Barnyardgrass) [2]; 0.0625 kg/ha) | Preemergence herbicidal rating ECHCG (ECHCG (Barnyardgrass) [2]; 0.1250 kg/ha) | Preemergence herbicidal rating ECHCG (ECHCG (Barnyardgrass) [2]; 0.2500 kg/ha) | Herbicidal rating IPOHE ([5]; rate 0.0156 kg/ha) | Herbicidal rating IPOHE ([5]; rate 0.0313 kg/ha) | Herbicidal rating IPOHE ([5]; rate 0.0625 kg/ha) | Herbicidal rating SETVI (SETVI (Foxtail, Green); rate 0.0313 kg/ha) | Herbicidal rating SETVI (SETVI (Foxtail, Green); rate 0.0625 kg/ha) | Preemergence herbicidal rating CHEAL ([6]; 0.0156 kg/ha) | Preemergence herbicidal rating CHEAL ([6]; 0.0313 kg/ha) | Preemergence herbicidal rating CHEAL ([6]; 0.0625 kg/ha) | Preemergence herbicidal rating CHEAL ([6]; 0.1250 kg/ha) | Preemergence herbicidal rating CHEAL ([6]; 0.2500 kg/ha) | Preemergence herbicidal rating IPOHE ([7]; 0.2500 kg/ha) | Herbicidal rating AMBEL (AMBEL (Ragweed, Common); rate 0.0156 kg/ha) | Herbicidal rating AMBEL (AMBEL (Ragweed, Common); rate 0.0313 kg/ha) | Herbicidal rating AMBEL (AMBEL (Ragweed, Common); rate 0.0625 kg/ha)
1.0: Herbicidal rating ECHCG (ECHCG (Barnyardgrass) [4]; rate 0.0156 kg/ha) | Herbicidal rating ECHCG (ECHCG (Barnyardgrass) [4]; rate 0.0313 kg/ha) | Herbicidal rating ECHCG (ECHCG (Barnyardgrass) [4]; rate 0.0625 kg/ha)
3.0: Preemergence herbicidal rating GALAP (GALAP (Galium); 0.2500 kg/ha) | Preemergence herbicidal rating ECHCG (ECHCG (Barnyardgrass) [2]; 0.0156 kg/ha) | Preemergence herbicidal rating CASOB (CASOB (Sicklepod); 0.1250 kg/ha) | Preemergence herbicidal rating CASOB (CASOB (Sicklepod); 0.2500 kg/ha) | Preemergence herbicidal rating IPOHE ([7]; 0.0156 kg/ha)
8.0: Preemergence herbicidal rating ZEAMX (ZEAMX (Corn, Field); 0.0625 kg/ha)
4.0: Herbicidal rating TRZAWR ([3]; rate 0.0313 kg/ha)
6.0: Herbicidal rating SETVI (SETVI (Foxtail, Green); rate 0.0156 kg/ha)

COCCCN1C(=O)CSC1=Nc1cc(-n2c(=O)cc(C(F)(F)F)n(C)c2=O)c(F)cc1Cl [Compound 172, 3-{4-Chloro-2-fluoro-5-{[3-(3-methoxypropyl)-4-oxo-2-thiazolidinylidene]amino}phenyl}-1-methyl-6-(trifluoromethyl)-2,4(1H, 3H)-pyrimidinedione]
4.5: Postemergence herbicidal rating TRZAWR ([3]; Rate 0.0313 kg/ha)
9.0: Preemergence herbicidal rating GALAP (GALAP (Galium); 0.2500 kg/ha) | Postemergence herbicidal rating ABUTH (ABUTH (Velvetleaf); Rate 0.0313 kg/ha) | Postemergence herbicidal rating ABUTH (ABUTH (Velvetleaf); Rate 0.0625 kg/ha) | Postemergence herbicidal rating ABUTH (ABUTH (Velvetleaf); rate 0.0156 kg/ha) | Preemergence herbicidal rating ZEAMX (ZEAMX (Corn, Field); 0.1250 kg/ha) | Preemergence herbicidal rating ZEAMX (ZEAMX (Corn, Field); 0.2500 kg/ha) | Preemergence herbicidal rating ECHCG (ECHCG (Barnyardgrass) [2]; 0.2500 kg/ha) | Postemergence herbicidal rating IPOHE ([5]; Rate 0.0313 kg/ha) | Postemergence herbicidal rating IPOHE ([5]; Rate 0.0625 kg/ha) | Postemergence herbicidal rating IPOHE ([5]; rate 0.0156 kg/ha) | Preemergence herbicidal rating CHEAL ([6]; 0.0156 kg/ha) | Preemergence herbicidal rating CHEAL ([6]; 0.0313 kg/ha) | Preemergence herbicidal rating CHEAL ([6]; 0.0625 kg/ha) | Preemergence herbicidal rating CHEAL ([6]; 0.1250 kg/ha) | Preemergence herbicidal rating CHEAL ([6]; 0.2500 kg/ha) | Preemergence herbicidal rating CASOB (CASOB (Sicklepod); 0.1250 kg/ha) | Preemergence herbicidal rating CASOB (CASOB (Sicklepod); 0.2500 kg/ha) | Preemergence herbicidal rating IPOHE ([7]; 0.1250 kg/ha) | Preemergence herbicidal rating IPOHE ([7]; 0.2500 kg/ha) | Postemergence herbicidal rating AMBEL (AMBEL (Ragweed, Common); Rate 0.0313 kg/ha) | Postemergence herbicidal rating AMBEL (AMBEL (Ragweed, Common); Rate 0.0625 kg/ha)
1.0: Preemergence herbicidal rating CASOB (CASOB (Sicklepod); 0.0156 kg/ha)
4.0: Preemergence herbicidal rating ZEAMX (ZEAMX (Corn, Field); 0.0156 kg/ha) | Preemergence herbicidal rating ECHCG (ECHCG (Barnyardgrass) [2]; 0.0156 kg/ha) | Postemergence herbicidal rating TRZAWR ([3]; Rate 0.0625 kg/ha) | Postemergence herbicidal rating TRZAWR ([3]; rate 0.0156 kg/ha)
6.5: Postemergence herbicidal rating GLXMAW ([1]; Rate 0.0313 kg/ha)
2.0: Postemergence herbicidal rating ECHCG (ECHCG (Barnyardgrass) [4]; rate 0.0156 kg/ha) | Postemergence herbicidal rating SETVI (SETVI (Foxtail, Green); Rate 0.0625 kg/ha) | Postemergence herbicidal rating SETVI (SETVI (Foxtail, Green); rate 0.0156 kg/ha) | Preemergence herbicidal rating IPOHE ([7]; 0.0156 kg/ha)
7.0: Preemergence herbicidal rating GALAP (GALAP (Galium); 0.1250 kg/ha) | Postemergence herbicidal rating GLXMAW ([1]; Rate 0.0625 kg/ha) | Preemergence herbicidal rating ZEAMX (ZEAMX (Corn, Field); 0.0313 kg/ha) | Preemergence herbicidal rating CASOB (CASOB (Sicklepod); 0.0625 kg/ha) | Preemergence herbicidal rating IPOHE ([7]; 0.0313 kg/ha) | Preemergence herbicidal rating IPOHE ([7]; 0.0625 kg/ha)
5.0: Preemergence herbicidal rating GALAP (GALAP (Galium); 0.0625 kg/ha)
6.0: Postemergence herbicidal rating GLXMAW ([1]; rate 0.0156 kg/ha) | Preemergence herbicidal rating ECHCG (ECHCG (Barnyardgrass) [2]; 0.0313 kg/ha) | Postemergence herbicidal rating AMBEL (AMBEL (Ragweed, Common); rate 0.0156 kg/ha)
8.0: Preemergence herbicidal rating ZEAMX (ZEAMX (Corn, Field); 0.0625 kg/ha) | Preemergence herbicidal rating ECHCG (ECHCG (Barnyardgrass) [2]; 0.0625 kg/ha) | Preemergence herbicidal rating ECHCG (ECHCG (Barnyardgrass) [2]; 0.1250 kg/ha)
0.0: Preemergence herbicidal rating GALAP (GALAP (Galium); 0.0156 kg/ha) | Preemergence herbicidal rating GALAP (GALAP (Galium); 0.0313 kg/ha)
3.0: Postemergence herbicidal rating ECHCG (ECHCG (Barnyardgrass) [4]; Rate 0.0313 kg/ha) | Postemergence herbicidal rating ECHCG (ECHCG (Barnyardgrass) [4]; Rate 0.0625 kg/ha) | Postemergence herbicidal rating SETVI (SETVI (Foxtail, Green); Rate 0.0313 kg/ha) | Preemergence herbicidal rating CASOB (CASOB (Sicklepod); 0.0313 kg/ha)
